According to paper PMC6199744, “Development of Chemical Proteomics for the Folateome and Analysis of the Kinetoplastid Folateome” (ACS Infectious Diseases, 2018):

Assays:
Assay type in all cases: binding
[1] = target: T1, HeLa cell extract proteins (Homo sapiens, UniProt Q13315); conditions: HeLa; protein ATM
T1 construct: endogenous in cells; host or cells: HeLa cell extract

[2] = target: T2, HeLa cell extract proteins (Homo sapiens, UniProt Q8NFH4); conditions: captured protein NUP37; HeLa
T2 construct: endogenous in cells; host or cells: HeLa cell extract
T2 sequence (Q8NFH4 1-326): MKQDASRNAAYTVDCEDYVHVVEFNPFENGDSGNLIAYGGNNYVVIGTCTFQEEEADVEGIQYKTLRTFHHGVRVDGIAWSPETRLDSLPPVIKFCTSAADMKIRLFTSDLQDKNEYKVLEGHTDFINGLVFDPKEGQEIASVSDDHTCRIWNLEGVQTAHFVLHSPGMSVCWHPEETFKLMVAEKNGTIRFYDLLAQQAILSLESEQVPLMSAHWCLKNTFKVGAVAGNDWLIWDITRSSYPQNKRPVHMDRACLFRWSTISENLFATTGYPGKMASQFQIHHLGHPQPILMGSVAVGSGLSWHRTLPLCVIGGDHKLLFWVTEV

[3] = target: T3, HeLa cell extract proteins (Homo sapiens, UniProt Q6P1J9); conditions: protein CDC73; HeLa
T3 construct: endogenous in cells; host or cells: HeLa cell extract

[4] = target: T4, HeLa cell extract proteins (Homo sapiens, UniProt P61457); conditions: captured protein PCBD1; HeLa
T4 construct: endogenous in cells; host or cells: HeLa cell extract
T4 sequence (P61457 1-104): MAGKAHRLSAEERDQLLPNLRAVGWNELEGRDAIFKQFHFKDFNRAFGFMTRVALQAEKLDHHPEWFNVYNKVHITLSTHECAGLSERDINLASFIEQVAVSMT

[5] = target: T5, HeLa cell extract proteins (Homo sapiens, UniProt P47897); conditions: HeLa; protein QARS
T5 construct: endogenous in cells; host or cells: HeLa cell extract
T5 sequence (P47897 1-775): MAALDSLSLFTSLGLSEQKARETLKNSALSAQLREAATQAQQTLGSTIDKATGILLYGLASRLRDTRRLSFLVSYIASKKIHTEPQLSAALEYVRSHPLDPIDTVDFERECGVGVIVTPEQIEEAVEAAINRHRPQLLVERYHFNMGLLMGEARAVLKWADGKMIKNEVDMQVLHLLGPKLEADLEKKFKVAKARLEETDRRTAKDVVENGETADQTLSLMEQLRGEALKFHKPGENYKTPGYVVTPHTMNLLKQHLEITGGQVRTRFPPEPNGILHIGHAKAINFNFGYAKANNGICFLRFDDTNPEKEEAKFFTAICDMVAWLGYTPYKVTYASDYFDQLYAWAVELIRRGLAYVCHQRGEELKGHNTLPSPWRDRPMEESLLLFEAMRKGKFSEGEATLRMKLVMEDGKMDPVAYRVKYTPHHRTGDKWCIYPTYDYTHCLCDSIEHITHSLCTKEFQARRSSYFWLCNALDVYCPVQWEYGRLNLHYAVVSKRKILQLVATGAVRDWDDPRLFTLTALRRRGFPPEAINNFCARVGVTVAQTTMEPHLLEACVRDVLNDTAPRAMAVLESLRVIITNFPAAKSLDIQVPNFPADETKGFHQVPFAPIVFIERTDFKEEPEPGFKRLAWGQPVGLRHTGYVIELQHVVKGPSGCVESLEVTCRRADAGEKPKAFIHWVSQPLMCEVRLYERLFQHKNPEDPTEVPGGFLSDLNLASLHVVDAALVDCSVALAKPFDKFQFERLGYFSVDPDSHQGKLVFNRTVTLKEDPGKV

[6] = target: T6, HeLa cell extract proteins (Homo sapiens, UniProt P20073); conditions: protein ANXA7; HeLa
T6 construct: endogenous in cells; host or cells: HeLa cell extract
T6 sequence (P20073 1-488): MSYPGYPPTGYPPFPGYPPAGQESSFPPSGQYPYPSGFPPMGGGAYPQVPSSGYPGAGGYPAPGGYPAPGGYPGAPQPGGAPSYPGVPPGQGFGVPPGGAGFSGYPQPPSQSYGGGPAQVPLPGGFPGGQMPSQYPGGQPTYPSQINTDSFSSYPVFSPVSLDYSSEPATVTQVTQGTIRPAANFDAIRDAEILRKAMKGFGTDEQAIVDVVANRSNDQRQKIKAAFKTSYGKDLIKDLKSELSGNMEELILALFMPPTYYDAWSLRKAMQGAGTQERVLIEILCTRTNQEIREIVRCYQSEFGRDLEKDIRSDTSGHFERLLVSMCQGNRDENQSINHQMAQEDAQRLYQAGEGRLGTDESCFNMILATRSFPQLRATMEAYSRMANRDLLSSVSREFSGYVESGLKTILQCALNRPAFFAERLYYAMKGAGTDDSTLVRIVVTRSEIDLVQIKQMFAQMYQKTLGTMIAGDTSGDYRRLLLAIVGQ

[7] = target: T7, HeLa cell extract proteins (Homo sapiens, UniProt P46940); conditions: protein IQGAP1; HeLa
T7 construct: endogenous in cells; host or cells: HeLa cell extract
T7 sequence (P46940 whole entry): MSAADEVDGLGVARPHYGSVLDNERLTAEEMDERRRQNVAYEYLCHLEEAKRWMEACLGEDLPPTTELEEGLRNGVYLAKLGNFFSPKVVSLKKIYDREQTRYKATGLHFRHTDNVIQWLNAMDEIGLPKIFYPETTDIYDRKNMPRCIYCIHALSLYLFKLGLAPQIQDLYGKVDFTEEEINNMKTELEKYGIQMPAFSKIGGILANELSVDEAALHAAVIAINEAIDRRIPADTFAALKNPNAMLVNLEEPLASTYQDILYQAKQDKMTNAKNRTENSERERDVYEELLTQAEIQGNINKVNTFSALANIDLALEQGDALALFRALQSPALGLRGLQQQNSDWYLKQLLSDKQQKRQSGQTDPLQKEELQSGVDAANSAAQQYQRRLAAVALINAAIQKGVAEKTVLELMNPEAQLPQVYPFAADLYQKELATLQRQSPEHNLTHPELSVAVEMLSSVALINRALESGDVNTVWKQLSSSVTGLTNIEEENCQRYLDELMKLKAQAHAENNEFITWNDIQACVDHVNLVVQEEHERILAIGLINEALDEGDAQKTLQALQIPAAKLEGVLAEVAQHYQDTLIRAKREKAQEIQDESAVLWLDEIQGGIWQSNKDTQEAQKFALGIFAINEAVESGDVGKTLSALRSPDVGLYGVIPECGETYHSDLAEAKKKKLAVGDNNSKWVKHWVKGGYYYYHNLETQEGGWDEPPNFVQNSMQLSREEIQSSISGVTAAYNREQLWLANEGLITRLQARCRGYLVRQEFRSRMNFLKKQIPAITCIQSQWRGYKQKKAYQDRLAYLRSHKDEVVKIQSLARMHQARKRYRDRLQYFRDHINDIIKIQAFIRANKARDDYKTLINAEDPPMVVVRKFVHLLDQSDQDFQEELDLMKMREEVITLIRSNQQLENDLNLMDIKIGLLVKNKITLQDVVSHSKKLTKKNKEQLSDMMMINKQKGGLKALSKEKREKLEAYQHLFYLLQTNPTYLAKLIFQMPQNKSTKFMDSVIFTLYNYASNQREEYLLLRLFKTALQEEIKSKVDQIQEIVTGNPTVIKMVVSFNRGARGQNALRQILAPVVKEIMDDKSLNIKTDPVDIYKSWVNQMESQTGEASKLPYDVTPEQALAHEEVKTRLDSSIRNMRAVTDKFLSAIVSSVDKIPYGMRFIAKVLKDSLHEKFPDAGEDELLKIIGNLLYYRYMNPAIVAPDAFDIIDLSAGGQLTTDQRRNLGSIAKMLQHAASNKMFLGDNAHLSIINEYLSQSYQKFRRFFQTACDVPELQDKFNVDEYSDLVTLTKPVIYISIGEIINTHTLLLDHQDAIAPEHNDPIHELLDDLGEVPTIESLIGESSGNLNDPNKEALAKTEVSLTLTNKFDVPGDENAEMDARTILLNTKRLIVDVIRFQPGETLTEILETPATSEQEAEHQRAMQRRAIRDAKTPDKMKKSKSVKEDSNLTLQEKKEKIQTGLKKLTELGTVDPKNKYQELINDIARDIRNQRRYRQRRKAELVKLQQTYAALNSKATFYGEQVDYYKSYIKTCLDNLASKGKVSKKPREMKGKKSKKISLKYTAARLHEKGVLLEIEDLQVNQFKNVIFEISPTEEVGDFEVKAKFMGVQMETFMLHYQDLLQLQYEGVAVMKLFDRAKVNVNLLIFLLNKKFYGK

[8] = target: T8, HeLa cell extract proteins (Homo sapiens, UniProt Q96JN8); conditions: protein KIAA1787; HeLa
T8 construct: endogenous in cells; host or cells: HeLa cell extract

[9] = target: T9, HeLa cell extract proteins (Homo sapiens, UniProt P48651); conditions: captured protein PTDSS1; HeLa
T9 construct: endogenous in cells; host or cells: HeLa cell extract

[10] = target: T10, HeLa cell extract proteins (Homo sapiens, UniProt P81605); conditions: protein DCD; HeLa
T10 construct: endogenous in cells; host or cells: HeLa cell extract
T10 sequence (P81605 20-110): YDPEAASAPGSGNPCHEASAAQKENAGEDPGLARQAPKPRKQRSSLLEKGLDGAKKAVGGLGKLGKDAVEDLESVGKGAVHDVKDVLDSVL

[11] = target: T11, HeLa cell extract proteins (Homo sapiens, UniProt P62820); conditions: captured protein RAB1A; HeLa
T11 construct: endogenous in cells; host or cells: HeLa cell extract
T11 sequence (P62820 whole entry): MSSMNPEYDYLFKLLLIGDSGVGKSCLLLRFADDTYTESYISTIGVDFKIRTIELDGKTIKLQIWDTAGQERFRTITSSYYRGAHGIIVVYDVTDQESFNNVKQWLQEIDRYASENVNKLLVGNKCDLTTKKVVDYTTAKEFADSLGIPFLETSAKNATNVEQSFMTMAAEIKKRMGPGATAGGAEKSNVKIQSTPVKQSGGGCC

[12] = target: T12, HeLa cell extract proteins (Homo sapiens, UniProt P40227); conditions: protein CCT6A; HeLa
T12 construct: endogenous in cells; host or cells: HeLa cell extract

[13] = target: T13, HeLa cell extract proteins (Homo sapiens, UniProt P49189); conditions: protein ALDH9A1; HeLa
T13 construct: endogenous in cells; host or cells: HeLa cell extract

[14] = target: T14, HeLa cell extract proteins (Homo sapiens, UniProt P35573); conditions: HeLa; protein AGL
T14 construct: endogenous in cells; host or cells: HeLa cell extract

T1 sequence (Q13315 whole entry): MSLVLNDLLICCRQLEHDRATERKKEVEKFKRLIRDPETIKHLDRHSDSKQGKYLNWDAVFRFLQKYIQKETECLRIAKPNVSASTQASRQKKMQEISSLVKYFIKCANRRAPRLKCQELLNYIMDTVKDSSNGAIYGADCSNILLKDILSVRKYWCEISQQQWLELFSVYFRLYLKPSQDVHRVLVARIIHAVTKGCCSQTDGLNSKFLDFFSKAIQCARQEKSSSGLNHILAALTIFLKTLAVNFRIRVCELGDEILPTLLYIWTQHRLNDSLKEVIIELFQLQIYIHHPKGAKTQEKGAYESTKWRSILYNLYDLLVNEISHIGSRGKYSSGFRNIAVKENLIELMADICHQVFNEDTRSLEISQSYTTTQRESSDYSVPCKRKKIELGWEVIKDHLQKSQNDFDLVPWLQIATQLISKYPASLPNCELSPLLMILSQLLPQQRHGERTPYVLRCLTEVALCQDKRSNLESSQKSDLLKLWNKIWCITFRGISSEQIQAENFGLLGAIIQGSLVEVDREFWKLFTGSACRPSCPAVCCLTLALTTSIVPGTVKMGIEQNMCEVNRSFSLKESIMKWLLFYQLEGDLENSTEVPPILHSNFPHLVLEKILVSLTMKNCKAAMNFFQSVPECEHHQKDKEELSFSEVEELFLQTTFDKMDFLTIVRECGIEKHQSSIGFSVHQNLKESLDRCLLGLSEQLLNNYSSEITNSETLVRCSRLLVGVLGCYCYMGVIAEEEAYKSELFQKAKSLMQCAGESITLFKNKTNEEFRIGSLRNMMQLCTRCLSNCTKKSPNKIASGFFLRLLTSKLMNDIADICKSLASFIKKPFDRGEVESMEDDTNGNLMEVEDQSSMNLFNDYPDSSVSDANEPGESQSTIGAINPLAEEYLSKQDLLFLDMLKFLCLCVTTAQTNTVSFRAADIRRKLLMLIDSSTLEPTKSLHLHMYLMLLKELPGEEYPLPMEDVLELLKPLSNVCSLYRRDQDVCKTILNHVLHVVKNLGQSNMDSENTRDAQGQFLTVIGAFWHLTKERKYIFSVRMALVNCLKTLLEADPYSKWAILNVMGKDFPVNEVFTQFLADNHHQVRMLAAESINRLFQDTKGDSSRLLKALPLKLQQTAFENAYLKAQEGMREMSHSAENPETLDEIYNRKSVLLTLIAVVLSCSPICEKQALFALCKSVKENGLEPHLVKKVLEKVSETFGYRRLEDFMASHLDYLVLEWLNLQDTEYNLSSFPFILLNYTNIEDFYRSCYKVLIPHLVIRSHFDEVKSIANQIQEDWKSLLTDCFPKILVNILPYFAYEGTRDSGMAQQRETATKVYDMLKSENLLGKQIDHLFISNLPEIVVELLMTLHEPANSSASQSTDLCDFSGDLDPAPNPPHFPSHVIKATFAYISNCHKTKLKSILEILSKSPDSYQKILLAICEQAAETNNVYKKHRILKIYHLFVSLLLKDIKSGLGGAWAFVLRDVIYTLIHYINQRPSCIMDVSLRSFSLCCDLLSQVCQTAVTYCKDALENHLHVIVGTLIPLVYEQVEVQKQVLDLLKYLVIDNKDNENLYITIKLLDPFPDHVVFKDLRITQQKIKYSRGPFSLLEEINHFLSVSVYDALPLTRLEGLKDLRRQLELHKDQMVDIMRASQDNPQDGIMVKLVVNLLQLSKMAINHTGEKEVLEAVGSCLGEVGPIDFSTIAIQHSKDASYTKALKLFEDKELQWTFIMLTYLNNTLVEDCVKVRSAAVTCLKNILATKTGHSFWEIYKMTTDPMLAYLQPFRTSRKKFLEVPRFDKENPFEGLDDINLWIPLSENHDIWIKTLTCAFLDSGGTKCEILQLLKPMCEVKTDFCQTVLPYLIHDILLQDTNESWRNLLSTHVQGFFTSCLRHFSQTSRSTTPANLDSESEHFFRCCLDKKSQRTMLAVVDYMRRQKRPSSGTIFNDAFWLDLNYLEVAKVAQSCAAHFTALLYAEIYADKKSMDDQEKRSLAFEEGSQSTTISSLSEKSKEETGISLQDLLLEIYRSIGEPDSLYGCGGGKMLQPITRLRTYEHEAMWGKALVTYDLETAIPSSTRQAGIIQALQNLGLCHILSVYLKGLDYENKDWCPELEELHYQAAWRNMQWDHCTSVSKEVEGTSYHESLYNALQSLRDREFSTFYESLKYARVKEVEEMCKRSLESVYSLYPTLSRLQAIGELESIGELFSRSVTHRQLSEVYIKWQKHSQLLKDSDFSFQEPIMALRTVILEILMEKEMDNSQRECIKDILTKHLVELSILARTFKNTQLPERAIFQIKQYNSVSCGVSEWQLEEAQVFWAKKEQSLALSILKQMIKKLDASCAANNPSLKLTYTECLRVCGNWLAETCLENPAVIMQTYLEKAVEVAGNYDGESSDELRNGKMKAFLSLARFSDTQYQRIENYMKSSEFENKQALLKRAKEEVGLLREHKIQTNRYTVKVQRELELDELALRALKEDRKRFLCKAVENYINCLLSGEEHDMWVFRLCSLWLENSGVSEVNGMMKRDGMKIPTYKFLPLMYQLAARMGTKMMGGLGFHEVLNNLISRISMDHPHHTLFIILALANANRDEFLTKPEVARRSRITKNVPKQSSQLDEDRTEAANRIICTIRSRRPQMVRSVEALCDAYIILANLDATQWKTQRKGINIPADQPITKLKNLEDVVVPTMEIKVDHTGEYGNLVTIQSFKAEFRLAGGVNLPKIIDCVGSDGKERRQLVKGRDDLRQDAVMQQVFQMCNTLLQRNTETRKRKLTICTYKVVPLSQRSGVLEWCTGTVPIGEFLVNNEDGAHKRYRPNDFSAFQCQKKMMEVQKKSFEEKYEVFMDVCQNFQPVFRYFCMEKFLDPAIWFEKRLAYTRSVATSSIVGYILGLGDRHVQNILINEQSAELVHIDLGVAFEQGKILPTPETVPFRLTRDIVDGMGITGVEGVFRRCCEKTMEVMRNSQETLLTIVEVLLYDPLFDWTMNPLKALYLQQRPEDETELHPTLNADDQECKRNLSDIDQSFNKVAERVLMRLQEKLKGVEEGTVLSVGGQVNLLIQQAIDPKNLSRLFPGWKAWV

SMILES: Nc1nc2cccc(-c3ccccc3)c2n1Cc1ccc(Cl)c(Cl)c1 [compound 3]
- fold changes relative to vehicle control [1]: 1.14
- fold changes relative to vehicle control [2]: 1.01
- fold changes relative to vehicle control [3]: 0.88
- fold changes relative to vehicle control [4]: 1.29
- fold changes relative to vehicle control [5]: 1.01
- fold changes relative to vehicle control [6]: 0.91
- fold changes relative to vehicle control [7]: 0.93
- fold changes relative to vehicle control [8]: 1.09
- fold changes relative to vehicle control [9]: 0.77
- fold changes relative to vehicle control [10]: 1.26
- fold changes relative to vehicle control [11]: 0.91
- fold changes relative to vehicle control [12]: 1.04
- fold changes relative to vehicle control [13]: 1.08
- fold changes relative to vehicle control [14]: 1.13
